Reference: publication PMC10349806 (Nature Communications, 2023)
Several values for one entry are separate records, joined by “and”; a condition that tells them apart may be missing. Identical values can stand only once.

Molecular target: T1, PfCRT variant D310A (Plasmodium falciparum, UniProt Q9N623, A220S/D310A/I356T/K76T/M74I/N326S/N75E/Q271E/R371I)
T1 sequence (Q9N623 1-424 M74I/N75E/K76T/A220S/Q271E/D310A/N326S/I356T/R371I): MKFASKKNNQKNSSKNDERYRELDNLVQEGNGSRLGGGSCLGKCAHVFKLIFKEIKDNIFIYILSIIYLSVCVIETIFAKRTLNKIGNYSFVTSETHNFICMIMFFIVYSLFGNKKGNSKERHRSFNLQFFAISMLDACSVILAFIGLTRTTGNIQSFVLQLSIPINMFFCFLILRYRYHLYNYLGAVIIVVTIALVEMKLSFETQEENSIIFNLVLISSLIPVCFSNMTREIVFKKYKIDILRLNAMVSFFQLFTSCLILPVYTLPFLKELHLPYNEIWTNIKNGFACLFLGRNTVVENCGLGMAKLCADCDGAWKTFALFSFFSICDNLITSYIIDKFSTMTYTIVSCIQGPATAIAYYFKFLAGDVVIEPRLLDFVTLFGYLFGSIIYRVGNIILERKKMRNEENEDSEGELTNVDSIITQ
Assay: CQ uptake assay, oocytes expressing D310A
Assay type: cell-based
Experimental: Site-directed mutagenesis of PfCRT^Dd2 was performed as described using the megaprimer method with overlap extension[21],[54]. The primer pairs used are listed in Supplementary Table 6. Please note that a codon-optimized and oocyte-adapted version of PfCRT^Dd2 was used[22] (Supplementary Fig. 16). The resulting DNA fragment was cloned into the SP64T expression vector and verified by sequencing.
Oocytes were obtained as described previously. Briefly, adult (>2 years old) female X. laevis frogs (NASCO) were anesthetized in a cooled solution of ethyl 3-amino benzoate methanesulfonate (0.1%, w/v), followed by a surgical removal of parts of the ovary. The ovary lobes were carefully dissected and small pieces of oocytes were incubated in Ca^2+-free ND96 buffer (96 mM NaCl, 2 mM KCl, 1 mM MgCl2 buffered with 5 mM HEPES/NaOH, pH 7.5) supplemented with collagenase D (0.1%, w/v; Roche), BSA (0.5%, w/v), and 9 mm Na2HPO4 at 18 °C for 14-16 h while gentle shaking. After incubation, the oocytes were carefully washed several times with ND96 buffer (96 mM NaCl, 2 mM KCl, 1.8 mM CaCl2, 1 mM MgCl2 buffered with 5 mM HEPES/NaOH, pH 7.5) supplemented with 100 mg l^−1 gentamycin). Defolliculated and healthy-looking stage V-VI oocytes were manually selected for RNA microinjection. The RNA was generated as following: The codon-optimized sequences of PfCRT variants were cloned into the pSP64T expression vector. After vector linearization using the restriction endonucleases BamHI or SalI (New England Biolabs), transcription was performed using the in vitro SP6 mMessage mMachine Kit (Ambion)[34]. The obtained RNA was kept at −80 °C and diluted with nuclease-free water to a concentration of 0.6 μg μl^−1. Precision-bore glass capillary tubes (3.5-inch glass capillaries; Drummond Scientific Co.) were pulled on a vertical puller (P-87 Flaming/Brown micropipette puller, Sutter Instrument Co.), graduated, and placed on a microinjector (Nanoject II Auto-Nanoliter Injector, Drummond Scientific Co.). 50 nl of nuclease-free water alone (control oocytes) or 50 nl of 0.6 μg μl^−1 RNA were injected under stereomicroscopic control. Injected oocytes were incubated for 46–72 h at 18 °C with twice-daily buffer changes before usage in experiments.
Drug uptake assays were performed as described previously[21],[22],[24],[34]. […] The direction of radio-labeled drug transport is here from the mostly acidic extracellular solution (pH 4.5 or 6.0, as indicated) into the oocyte cytosol (pH ∼ 7.2), which corresponds to the efflux of drug from the acidic digestive vacuole (pH 5.2) into the parasite cytoplasm (pH 7.2). The topology of PfCRT in the oolemma is such that both the N- and C-terminus face the extracellular milieu[3],[22]. In the parasite, the N- and C-terminus face the lumen of the digestive vacuole. CQ uptake kinetics were performed by incubating oocytes in ND96 buffer adjusted to a pH of 4.5, 5.0, 5.5, or 6.0 and supplemented with 50 nM [^3H]CQ and one of 7 different CQ concentrations (10 µM, 50 µM, 100 µM, 200 µM, 300 µM, 400 µM, 500 µM CQ). The reaction was stopped at the 60 min time point, which is in the linear uptake range[22],[34] (Supplementary Fig. 17). For determination of the amount of drug uptake for each oocyte, the reaction medium was removed and the oocytes were washed three times with 2 ml of ice-cold ND96 buffer. Each oocyte was individually transferred to a scintillation vial containing 5% sodium dodecyl sulfate (200 μl) for lysis. The radioactivity of each sample was measured using a liquid scintillation analyzer Tri-Carb 4910 TR (PerkinElmer). Oocytes that were injected with water instead of RNA were analyzed in parallel, representing the uptake of a drug by diffusion and/or endogenous permeation pathways. The resulting value represents the “background“ level of drug accumulation in oocytes (in-depth discussion in[22]). […]

[1] = D310A, 50 µM CQ, 1 h, mean ± SEM

Structure (SMILES): CCN(CC)CCCC(C)Nc1ccnc2cc(Cl)ccc12 (stereo not drawn) [CQ, chloroquine]
- Activity at pH 4.5 [1]: 0.96 ± 0.15 pmol h-1 oocyte-1
- Activity at pH 6.0 [1]: 1.25 pmol h-1 oocyte-1 and 1.25 ± 0.18 pmol h-1 oocyte-1
- R-value (D310A, CQ transport at pH 4.5 / pH 6.0): 0.77 and 0.77 ± 0.07
- D310A transport activity pH 4.5 (pH 4.5, single replicates, Fig 1d left): 0.65 pmol oocyte-1 h-1 and 1.30 pmol oocyte-1 h-1 and 0.92 pmol oocyte-1 h-1
- D310A R-value (pH 4.5 vs pH 6.0, Fig 1d left): 0.79 and 0.92 and 0.61
- D310A transport activity pH 6.0 (pH 6.0, single replicates, Fig 1d left): 0.82 pmol oocyte-1 h-1 and 1.42 pmol oocyte-1 h-1 and 1.51 pmol oocyte-1 h-1
